Consider 21 compounds from paper PMC9785280, “Synthesis, Antiproliferative Evaluation and QSAR Analysis of Novel Halogen- and Amidino-Substituted Benzothiazoles and Benzimidazoles” (International Journal of Molecular Sciences, 2022).

The test system of one data set is human fibroblasts (BJ). The data set is described as follows: MTT antiproliferative assay, normal BJ fibroblasts. The note with it: Homo sapiens, Fibroblast, 72 h, MTT, mean ± SD of three independent experiments; normal cells. Format: cell-based. The procedure:
(§1) The growth inhibition activity was assessed according to the slightly modified procedure performed at the National Cancer Institute, Developmental Therapeutics Program.
(§2) Examined compounds were dissolved in DMSO (1 × 10^−2 M). The experiments were carried out on seven human tumor cell lines and two normal cell lines. The following cell lines were used: HeLa (human cervical adenocarcinoma; purchased from ATCC), CaCo-2 (human colorectal adenocarcinoma), HuT78 (T-cell lymphoma), THP-1 (acute monocytic leukemia), SW620 (colorectal adenocarcinoma, metastatic), MDA-MB-231 (human breast adenocarcinoma), HL60 (promyelocytic leukemia cell line), foreskin fibroblast cells (BJ) and MDCK1 (Madine–Darby canine kidney fibroblast like cells). MDCK1 cells were used between 24 and 26 passages.
(§3) Adherent cells were cultured in the Dulbecco’s modified Eagle medium—DMEM (Gibco, EU) supplemented with 10 % heat-inactivated fetal bovine serum (FBS, Gibco, EU), 2 mM glutamine, and 100 U/0.1 mg penicillin/streptomycin. Cells on suspension were cultured in RPMI 1640 (Gibco, EU) medium supplemented with 10 % FBS (Gibco, EU), 2 mM glutamine, 1 mM sodium pyruvate, 10 mM HEPES. Cells were grown in humidified atmosphere under the conditions of 37 °C/5% of CO2 gas in the CO2 incubator (IGO 150 CELLlife^TM, JOUAN, Thermo Fisher Scientific, Waltham, MA, USA). A erythrosin B (Sigma-Aldrich, St. Louis, MO, USA) dye exclusion method was used to assess cell viability before plating.
(§4) Adherent cells (HeLa, CaCo-2, MCF-7 and MDCK-1) were plated in 96-well flat bottom plates (Greiner, Frickenhausen, Austria) at a concentration of 2 × 10^4 cells/mL. Suspension cells (THP-1 and HuT78) were plated in 96-well microtiter plates (Sarstead, Newton, USA) at a concentration of 1 × 10^5 cells/mL. Twenty-four hours later, cells were treated with test agents in […] 10-fold dilutions ([…] to 10^−4 M) and incubated for further 72 h. Working dilutions were freshly prepared on the day of testing. The solvent was also tested for eventual inhibitory activity by adjusting its concentration to be the same as in working concentrations. After 72 h of incubation, the cell growth rate was evaluated by performing the MTT assay, which detects dehydrogenase activity in viable cells. For this purpose, upon completion of the incubation period, growth medium was discarded and 50 μL of MTT was added to each well at a concentration of 5 mg/mL. After four hours of incubation at 37 °C, water insoluble MTT-formazan crystals were dissolved in 150 μL of dimethyl-sulfoxide (DMSO) for adherent cells, and in 10 % SDS with 0.01 M/L HCl for cells grown in suspension. The absorbance (OD, optical density) was measured on a microplate reader (iMark, BIO RAD, Hercules, CA, USA) at 595 nm.
(§5) Percent of life cells was calculated as follows: % = OD (sample)–OD (background)/OD (control)–OD (background) × 100.
(§6) Optical density (OD) of background for adherent cells is the OD of MTT solution and DMSO; OD (background) for suspension cells is OD of the culture medium with MTT and 10% SDS with 0.01 M/L HCl; OD (control) is the OD of the cells growth without tested compounds.
(§7) Calculation of GI50 value curves and QC analysis is performed by using the Excel tools and GraphPadPrism software (La Jolla, CA), v. 5.03. Briefly, individual concentration effect curves are generated by plotting the logarithm of the concentration of tested compounds(X) vs. corresponding percent inhibition values (Y) using least squares fit. The best fit GI50 values are calculated using Log (inhibitor) versus normalized response—Variable slope equation, where Y Ľ 100/(1 ţ 10 ((LogIC50 _ X) * HillSlope)). QC criteria parameters (Z0, S:B, R2, HillSlope) were checked for every GI50 curve.

In data set [1] the test system is HuT78 (T-cell lymphoma) cells. Put plainly: MTT antiproliferative assay, HuT78. Format: cell-based, human. The note with it: for IC50: Homo sapiens, HuT78, 72 h, 72 h, MTT, mean ± SD of three independent experiments; for SI (BJ) HuT78: SI = IC50 BJ / IC50 HuT78; for SI (MDCK) HuT78: SI = IC50 MDCK1 / IC50 HuT78. On the procedure: as §1, §2, §3, §4, §5, §6, §7

Data set [2] deals with HeLa (cervical adenocarcinoma) cells. Put plainly: MTT antiproliferative assay, HeLa. In kind it is cell-based. The following applies: Homo sapiens, 72 h, mean ± SD of three independent experiments. On the procedure: as §1, §2, §3, §4, §5, §6, §7
Data set [3] concerns MDCK1 (Madin–Darby canine kidney) cells. Put plainly: MTT antiproliferative assay, non-tumor MDCK1 cells. Format: cell-based. The following applies: Canis lupus familiaris, MDCK1, 72 h, mean ± SD of three independent experiments, normal cells. On the procedure: as §1, §2, §3, §4, §5, §6, §7
For data set [4], the system named is CaCo-2 (colon adenocarcinoma) cells. Put plainly: MTT antiproliferative assay, CaCo-2. Format: cell-based, human. The following applies: for IC50: Homo sapiens, Caco-2, 72 h, MTT, mean ± SD of three independent experiments. On the procedure: as §1, §2, §3, §4, §5, §6
Calculation of GI50 value curves and QC analysis is performed by using the Excel tools and GraphPadPrism software (La Jolla, CA), v. 5.03. Briefly, individual concentration effect curves are generated by plotting the logarithm of the concentration of tested compounds(X) vs. corresponding percent inhibition values (Y) using least squares fit. […] QC criteria parameters (Z0, S:B, R2, HillSlope) were checked for every GI50 curve.

As for `O=c1[nH]cc(F)c(=O)[nH]1` [5-FU, 5-Fluorouracil, reference compound], the concentration for half-maximal inhibition (IC50) in the data set on human fibroblasts (BJ) is 74 ± 3.1 µM; in data set [1], above 100 µM; in data set [2], 8.2 ± 1.9 µM; in data set [3], 55 ± 8.7 µM. Besides, in data set [1], the “antiproliferative effect on HuT78 cells (in words)” value is recorded as “did not exhibit antiproliferative effect”.

For `Clc1ccc2nc(-c3ccc(OCc4ccccn4)cc3)sc2c1` [18a], the IC50 was above 100 µM in data set [4]; above 100 µM in the data set on human fibroblasts (BJ); 13.2 ± 1.2 µM in data set [1]; 42.4 ± 7.5 µM in data set [2]; 17.6 ± 5.7 µM in data set [3]. The “SI (BJ) HuT78” value in data set [1] was found to be 3.2.

With `O=C(COc1ccc(-c2nc3ccc(C4=NCCCN4)cc3s2)cc1)c1ccccc1` [38a], the IC50 is 25.4 ± 3.5 µM in data set [4]; 22.6 ± 4.6 µM in the data set with human fibroblasts (BJ); 16.2 ± 5.5 µM in data set [1]; 19.7 ± 3.1 µM in data set [2]; 27.1 ± 3.4 µM in data set [3]. In data set [1], the “SI (BJ) HuT78” value amounted to 1.39. Moreover, the “SI (MDCK) HuT78” value in data set [1] is on record as 1.67.

As for `c1cc(-c2nc3ccc(C4=NCCCN4)cc3s2)ccc1OCc1c[nH]nn1` [40a], the half-maximal inhibitory concentration (IC50) is above 100 µM in data set [4]; above 100 µM in the data set with human fibroblasts (BJ); above 100 µM in data set [1]; above 100 µM in data set [2]; 59.4 ± 18.8 µM in data set [3].

Consider `Fc1cc(-c2nc3ccc(C4=NCCCN4)cc3s2)ccc1OCc1c[nH]nn1` [40b], for which the IC50 was above 100 µM in data set [4]; above 100 µM with human fibroblasts (BJ); 37.3 ± 12.8 µM in data set [1]; above 100 µM in data set [2]; above 100 µM in data set [3]. Moreover, the “SI (BJ) HuT78” value in data set [1] amounted to 2.68. Further, the “SI (MDCK) HuT78” value in data set [1] stood at 2.68.

In the case of `COc1cc(-c2nc3ccc(C4=NCCCN4)cc3s2)ccc1OCc1c[nH]nn1` [40c], the half-maximal inhibitory concentration (IC50) (in data set [4]; in the data set on human fibroblasts (BJ); in data set [1]; in data set [2]; in data set [3]) was above 100 µM each time.

Consider `c1ccc(Cn2cc(COc3ccc(-c4nc5ccc(C6=NCCCN6)cc5s4)cc3)nn2)cc1` [41a], for which the IC50 in data set [4] was found to be 29.2 ± 4.2 µM; with human fibroblasts (BJ), 27.3 ± 6 µM; in data set [1], 4.1 ± 3.6 µM; in data set [2], 25.8 ± 0.8 µM; in data set [3] it was 58.2 ± 17.3 µM. Further, the “SI (MDCK) CaCo-2” value in data set [4] (SI = IC50 MDCK1 / IC50 CaCo-2) is 1.99. In addition, the “SI (BJ) HuT78” value in data set [1] was 6.65. In addition, the “SI (MDCK) HuT78” value in data set [1] came out at 14.19.

Turning to `COc1cc(-c2nc3ccc(C4=NCCCN4)cc3s2)ccc1OCc1cn(Cc2ccccc2)nn1` [41c], the IC50 (in data set [4]; in the data set with human fibroblasts (BJ); in data set [1]; in data set [2]; in data set [3]) was above 100 µM each time.

Take `Fc1cc(-c2nc3ccc(C4=NCCN4)cc3[nH]2)ccc1OCc1ccccn1` [43b]: the IC50 in data set [4] is above 100 µM; in the data set on human fibroblasts (BJ), above 100 µM; in data set [1], 43.3 ± 4.4 µM; in data set [2], above 100 µM; in data set [3], above 100 µM. For the same compound, the “SI (BJ) HuT78” value in data set [1] came out at 2.3. Besides, the “SI (MDCK) HuT78” value in data set [1] came to 2.3.

For `COc1cc(-c2nc3ccc(C4=NCCN4)cc3[nH]2)ccc1OCc1ccccn1` [43c], the IC50 in data set [4] was above 100 µM; in the data set with human fibroblasts (BJ), 30.9 ± 8.7 µM; in data set [1], 17.7 ± 6.1 µM; in data set [2] it was above 100 µM; in data set [3], 63.4 ± 8.9 µM. For the same compound, in data set [1], the “SI (BJ) HuT78” value is given as 1.75. The “SI (MDCK) HuT78” value in data set [1] came out at 3.58.

`c1cc(-c2nc3ccc(C4=NCCN4)cc3[nH]2)ccc1OCc1c[nH]nn1` [44a]: the IC50 is above 100 µM in data set [4]; 73.3 ± 3.2 µM in the data set with human fibroblasts (BJ); 89.2 ± 20.6 µM in data set [1]; above 100 µM in data set [2]; above 100 µM in data set [3]. The “SI (MDCK) HuT78” value in data set [1] is 1.2.

For `Fc1cc(-c2nc3ccc(C4=NCCN4)cc3[nH]2)ccc1OCc1c[nH]nn1` [44b], the half-maximal inhibitory concentration (IC50) in data set [4] is above 100 µM; with human fibroblasts (BJ) it was 45.1 ± 20.9 µM; in data set [1], 65.6 ± 17.3 µM; in data set [2], above 100 µM; in data set [3] it was above 100 µM. The “SI (MDCK) HuT78” value in data set [1] was 1.52.

Take `COc1cc(-c2nc3ccc(C4=NCCN4)cc3[nH]2)ccc1OCc1c[nH]nn1` [44c]: the IC50 (in data set [4]; in the data set on human fibroblasts (BJ); in data set [1]; in data set [2]; in data set [3]) was above 100 µM each time.

Turning to `c1cc(-c2nc3ccc(C4=NCCN4)cc3[nH]2)ccc1OCc1cn(CCN2CCOCC2)nn1` [46a], the half-maximal inhibitory concentration (IC50) in data set [4] was above 100 µM; in the data set on human fibroblasts (BJ), above 100 µM; in data set [1], 63 ± 15.1 µM; in data set [2], above 100 µM; in data set [3] it was above 100 µM. The “SI (BJ) HuT78” value in data set [1] turned out to be 1.59. Moreover, the “SI (MDCK) HuT78” value in data set [1] amounted to 1.59.

With `O=C(COc1ccc(-c2nc3ccc(C4=NCCN4)cc3[nH]2)cc1)N1CCOCC1` [47a], the IC50 (in data set [4]; in the data set with human fibroblasts (BJ); in data set [1]; in data set [2]; in data set [3]) was above 100 µM in each case.

With `O=C(COc1ccc(-c2nc3ccc(C4=NCCN4)cc3[nH]2)cc1F)N1CCOCC1` [47b], the IC50 (in data set [4]; in the data set with human fibroblasts (BJ); in data set [1]; in data set [2]; in data set [3]) was above 100 µM in each case.

On to `c1cc(-c2nc3ccc(C4=NCCN4)cc3[nH]2)ccc1OCCN1CCOCC1` [48a], for which the IC50 (in data set [4]; with human fibroblasts (BJ); in data set [1]; in data set [2]; in data set [3]) was above 100 µM each time.

On to `Fc1cc(-c2nc3ccc(C4=NCCN4)cc3[nH]2)ccc1OCCN1CCOCC1` [48b], for which the half-inhibitory concentration (IC50) (in data set [4]; with human fibroblasts (BJ); in data set [1]; in data set [2]; in data set [3]) was above 100 µM in each case.

`COc1cc(-c2nc3ccc(C4=NCCN4)cc3[nH]2)ccc1OCCN1CCOCC1` [48c]: the IC50 in data set [4] was above 100 µM; with human fibroblasts (BJ) it was above 100 µM; in data set [1], 69.6 ± 25.9 µM; in data set [2], above 100 µM; in data set [3] it was above 100 µM. The “SI (BJ) HuT78” value in data set [1] was found to be 1.44. Also, in data set [1], the “SI (MDCK) HuT78” value is 1.44.

Regarding `CCN(CC)CCOc1ccc(-c2nc3ccc(C4=NCCN4)cc3[nH]2)cc1` [49a], the IC50 in data set [4] was above 100 µM; with human fibroblasts (BJ), 80.4 ± 9.9 µM; in data set [1], above 100 µM; in data set [2], above 100 µM; in data set [3] it was above 100 µM.

`CCN(CC)CCOc1ccc(-c2nc3ccc(C4=NCCN4)cc3[nH]2)cc1F` [49b]: the half-inhibitory concentration (IC50) in data set [4] was above 100 µM; in the data set with human fibroblasts (BJ), 64.8 ± 9.2 µM; in data set [1], above 100 µM; in data set [2] it was above 100 µM; in data set [3], 82.9 ± 6.6 µM.
